Results from patent US20140094424A1, “MICROBICIDAL COMPOSITIONS AND METHODS OF PRODUCTION USE THEREOF” (priority 2011, published 2014).
Read-outs that look alike come from different tables or passages of the source.

What was measured:
[1] = system: Pseudomonas aeruginosa (L); test: MBC (minimum bactericidal concentration) test in Wash NEXT reagent; assay type: cell-based
Ralstonia pickettii (AU) = assay type: cell-based
Experimental: The stock organisms were thawed and subbed prior to beginning the MBC test. Molds were subbed to SDA plates one week before, and the bacteria were subbed to TAT agar plates 24 hours prior to the start of the test. All plates were incubated at 32 degrees C.
Each bacterial organism was inoculated into 40 ml sterile saline in a centrifuge tube to create a density of MacFarland #1. Two serial dilutions of 1:100 were then made, resulting in 10^−2 and 10^−4 concentrations. Each dilution was vortexed before it was sampled, and sterile Eppendorf pipette tips were used to make each transfer. The 10^−4 dilution was spiral plated to yield the initial inoculum concentration.
MBC trays were set up with the prepared test reagent. Using a Matrix pipettor, 100 μl aliquots of reagent were distributed into the wells, diluting the amount of preservative from 100% to 10% increments, using unpreserved reagent as the diluent. In one row, 100% non-preserved reagent acted as a positive control and served as a benchmark for a full mat of growth. In well #12H, 100 μl unpreserved reagent was pipetted, and this well was not inoculated with organisms, as it served as the negative control. Once all of the trays were prepared, the prepared bacteria/mold suspensions were poured into the MBC inoculating trays. These were placed onto the reagent trays, and 0.01 ml inoculum was introduced into the 100 μl of reagent in each well.
This was done by dipping a sterile cotton swab into each well, and absorbing all of the liquid in the well. The swab was rolled onto a TAT agar plate ensuring that the entire swab touches the agar. Plates ware incubated at 32 degrees C. for 48 hours to 7 days, depending on the organism. Observations for growth were performed by a scoring matrix using + for a full mat, +/− for some growth, a numerical value for an actual colony count, and—for no growth.
Below are tables that contain the data obtained in Example 1. The MBC test is scored by (+) indicating a full grown mat of organisms, equivalent to the organisms in the unpreserved reagent. (+/−) indicates there is some kill evident disturbing that mat or bringing the quantities down to an almost countable level. An actual number is the actual number of colonies growing at that concentration of preservative. (−) indicates no growth found. The MBC trays were stored at room temperature for the entire test.
The materials and methods and analysis of the MBC test were the same as in Example 1.

[2] = system: creatinine biosensor (creatinine amidohydrolase, creatinine amidinohydrolase and sarcosine oxidase); test: Effect on enzymatic activity of a creatinine biosensor (rate of O2% decrease); assay type: biochemical; conditions: 210 μM gentamicin, FIG. 1
Experimental: In FIG. 1, the effects of various concentrations of gentamicin on the enzymatic activity of a creatinine biosensor (comprising the three enzymes creatinine amidohydrolase, creatinine amidinohydrolase and sarcosine oxidase) were determined. In FIG. 2, the effects of various concentrations of propionate on the enzymatic activity of a creatinine biosensor (comprising three enzymes) were determined.
In both instances, a decreasing rate of O2% is an indicator of enzyme activity; the faster the rate of O2% decrease, the higher enzymatic activity is.

In the case of gentamicin, the “MBC test growth score” value ([1]; 10% preservative, 8 hour) is reported as “+”, the “MBC test growth score” value ([1]; 10% preservative, 24 hour) is reported as “+” and the “MBC test growth score” value ([1]; 10% preservative, 48 hour) is reported as “+/−”. The “MBC test growth score” value ([1]; 10% preservative, 72 hour) was 8, the “MBC test growth score” value ([1]; 20% preservative, 8 hour) was “+” and the “MBC test growth score” value ([1]; 20% preservative, 24 hour) was “+”. The “MBC test growth score” value ([1]; 20% preservative, 48 hour) was “+/−”, the “MBC test growth score” value ([1]; 20% preservative, 72 hour) was 4 and the “MBC test growth score” value ([1]; 30% preservative, 8 hour) was “+”. For the same substance, the “MBC test growth score” value ([1]; 30% preservative, 24 hour) was “+/−”, the “MBC test growth score” value ([1]; 30% preservative, 48 hour) was “+/−” and the “MBC test growth score” value ([1]; 30% preservative, 72 hour) was 2. The “MBC test growth score” value ([1]; 40% preservative, 8 hour) was “+”, the “MBC test growth score” value ([1]; 40% preservative, 24 hour) was “+/−” and the “MBC test growth score” value ([1]; 40% preservative, 48 hour) was “+/−”. The “MBC test growth score” value ([1]; 40% preservative, 72 hour) was 1, the “MBC test growth score” value ([1]; 50% preservative, 8 hour) was “+” and the “MBC test growth score” value ([1]; 50% preservative, 24 hour) was “+/−”. The “MBC test growth score” value ([1]; 50% preservative, 48 hour) was “+/−”, the “MBC test growth score” value ([1]; 50% preservative, 72 hour) was “−” and the “MBC test growth score” value ([1]; 60% preservative, 8 hour) was “+/−”. The “MBC test growth score” value ([1]; 60% preservative, 24 hour) was “+/−”, the “MBC test growth score” value ([1]; 60% preservative, 48 hour) was “+/−” and the “MBC test growth score” value ([1]; 60% preservative, 72 hour) was “−”. The “MBC test growth score” value ([1]; 70% preservative, 8 hour) was “+/−”, the “MBC test growth score” value ([1]; 70% preservative, 24 hour) was “+/−” and the “MBC test growth score” value ([1]; 70% preservative, 48 hour) was “+/−”. For the same substance, the “MBC test growth score” value ([1]; 70% preservative, 72 hour) was “−”, the “MBC test growth score” value ([1]; 80% preservative, 8 hour) was “+/−” and the “MBC test growth score” value ([1]; 80% preservative, 24 hour) was “+/−”. The “MBC test growth score” value ([1]; 80% preservative, 48 hour) was “+/−”, the “MBC test growth score” value ([1]; 80% preservative, 72 hour) was “−” and the “MBC test growth score” value ([1]; 90% preservative, 8 hour) was “+/−”. For the same substance, the “MBC test growth score” value ([1]; 90% preservative, 24 hour) was “+/−”, the “MBC test growth score” value ([1]; 90% preservative, 48 hour) was “−” and the “MBC test growth score” value ([1]; 90% preservative, 72 hour) was “−”. The “MBC test growth score” value ([1]; 100% preservative, 8 hour) was “+/−”, the “MBC test growth score” value ([1]; 100% preservative, 24 hour) was “+/−” and the “MBC test growth score” value ([1]; 100% preservative, 48 hour) was “−”. For the same substance, the “MBC test growth score” value ([1]; 100% preservative, 72 hour) was “−”, the “MBC test growth score” value (Ralstonia pickettii (AU); 10% preservative, 8 hour) was “−” and the “MBC test growth score” value (Ralstonia pickettii (AU); 10% preservative, 24 hour) was “−”. For the same substance, the “MBC test growth score” value (Ralstonia pickettii (AU); 10% preservative, 48 hour) was “−”, the “MBC test growth score” value (Ralstonia pickettii (AU); 10% preservative, 72 hour) was “−” and the “MBC test growth score” value (Ralstonia pickettii (AU); 20% preservative, 8 hour) was “−”. For the same substance, the “MBC test growth score” value (Ralstonia pickettii (AU); 20% preservative, 24 hour) was “−”, the “MBC test growth score” value (Ralstonia pickettii (AU); 20% preservative, 48 hour) was “−” and the “MBC test growth score” value (Ralstonia pickettii (AU); 20% preservative, 72 hour) was “−”. For the same substance, the “MBC test growth score” value (Ralstonia pickettii (AU); 30% preservative, 8 hour) was “−”, the “MBC test growth score” value (Ralstonia pickettii (AU); 30% preservative, 24 hour) was “−” and the “MBC test growth score” value (Ralstonia pickettii (AU); 30% preservative, 48 hour) was “−”. The “MBC test growth score” value (Ralstonia pickettii (AU); 30% preservative, 72 hour) was “−”, the “MBC test growth score” value (Ralstonia pickettii (AU); 40% preservative, 8 hour) was “−” and the “MBC test growth score” value (Ralstonia pickettii (AU); 40% preservative, 24 hour) was “−”. For the same substance, the “MBC test growth score” value (Ralstonia pickettii (AU); 40% preservative, 48 hour) was “−”, the “MBC test growth score” value (Ralstonia pickettii (AU); 40% preservative, 72 hour) was “−” and the “MBC test growth score” value (Ralstonia pickettii (AU); 50% preservative, 8 hour) was “−”. The “MBC test growth score” value (Ralstonia pickettii (AU); 50% preservative, 24 hour) was “−”, the “MBC test growth score” value (Ralstonia pickettii (AU); 50% preservative, 48 hour) was “−” and the “MBC test growth score” value (Ralstonia pickettii (AU); 50% preservative, 72 hour) was “−”. The “MBC test growth score” value (Ralstonia pickettii (AU); 60% preservative, 8 hour) was “−”, the “MBC test growth score” value (Ralstonia pickettii (AU); 60% preservative, 24 hour) was “−” and the “MBC test growth score” value (Ralstonia pickettii (AU); 60% preservative, 48 hour) was “−”. For the same substance, the “MBC test growth score” value (Ralstonia pickettii (AU); 60% preservative, 72 hour) was “−”, the “MBC test growth score” value (Ralstonia pickettii (AU); 70% preservative, 8 hour) was “−” and the “MBC test growth score” value (Ralstonia pickettii (AU); 70% preservative, 24 hour) was “−”. The “MBC test growth score” value (Ralstonia pickettii (AU); 70% preservative, 48 hour) was “−”, the “MBC test growth score” value (Ralstonia pickettii (AU); 70% preservative, 72 hour) was “−” and the “MBC test growth score” value (Ralstonia pickettii (AU); 80% preservative, 8 hour) was “−”. The “MBC test growth score” value (Ralstonia pickettii (AU); 80% preservative, 24 hour) was “−”, the “MBC test growth score” value (Ralstonia pickettii (AU); 80% preservative, 48 hour) was “−” and the “MBC test growth score” value (Ralstonia pickettii (AU); 80% preservative, 72 hour) was “−”. For the same substance, the “MBC test growth score” value (Ralstonia pickettii (AU); 90% preservative, 8 hour) was “−”, the “MBC test growth score” value (Ralstonia pickettii (AU); 90% preservative, 24 hour) was “−” and the “MBC test growth score” value (Ralstonia pickettii (AU); 90% preservative, 48 hour) was “−”. For the same substance, the “MBC test growth score” value (Ralstonia pickettii (AU); 90% preservative, 72 hour) was “−”, the “MBC test growth score” value (Ralstonia pickettii (AU); 100% preservative, 8 hour) was “−” and the “MBC test growth score” value (Ralstonia pickettii (AU); 100% preservative, 24 hour) was “−”. The “MBC test growth score” value (Ralstonia pickettii (AU); 100% preservative, 48 hour) was “−”, the “MBC test growth score” value (Ralstonia pickettii (AU); 100% preservative, 72 hour) was “−” and the “effect on enzymatic activity of the three enzymes in the creatinine biosensor” value [2] was “did not inactivate enzymatic activity”.
